{
  "source": "ChEMBL document CHEMBL2074516",
  "about": "“cDNA structure, genomic organization, and promoter analysis of the mouse intestinal peptide transporter PEPT1” (Biochim Biophys Acta, 2000)",
  "key": {"[1]": {"target": "T1, Solute carrier family 15 member 1 (Mus musculus) (UniProt Q9JIP7)", "T1 sequence (whole entry)": "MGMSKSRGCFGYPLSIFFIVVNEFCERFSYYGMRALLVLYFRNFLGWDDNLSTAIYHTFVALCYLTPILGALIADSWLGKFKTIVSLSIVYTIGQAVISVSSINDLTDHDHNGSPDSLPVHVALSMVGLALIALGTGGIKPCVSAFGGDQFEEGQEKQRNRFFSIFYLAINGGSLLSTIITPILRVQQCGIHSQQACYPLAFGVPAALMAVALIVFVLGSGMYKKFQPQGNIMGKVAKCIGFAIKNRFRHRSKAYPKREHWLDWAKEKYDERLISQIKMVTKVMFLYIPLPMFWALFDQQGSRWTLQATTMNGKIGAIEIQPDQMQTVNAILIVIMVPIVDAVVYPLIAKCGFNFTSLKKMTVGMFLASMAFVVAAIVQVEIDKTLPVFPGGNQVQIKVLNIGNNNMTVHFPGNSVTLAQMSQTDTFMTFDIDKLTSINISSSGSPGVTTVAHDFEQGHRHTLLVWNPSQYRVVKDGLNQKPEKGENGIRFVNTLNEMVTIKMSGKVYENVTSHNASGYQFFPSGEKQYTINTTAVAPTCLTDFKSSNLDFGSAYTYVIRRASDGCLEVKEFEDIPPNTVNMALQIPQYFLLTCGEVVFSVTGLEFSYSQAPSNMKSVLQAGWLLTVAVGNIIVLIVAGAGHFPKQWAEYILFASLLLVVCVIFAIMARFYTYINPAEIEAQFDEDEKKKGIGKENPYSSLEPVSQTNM", "assay": "TP_TRANSPORTER: uptake in Xenopus laevis oocytes", "format": "functional, cell-based", "details": "Oocyte"}, "[2]": {"target": "T1, Solute carrier family 15 member 1 (Mus musculus)", "assay": "TP_TRANSPORTER: uptake in PEPT1-expressing HRPE cells", "format": "functional, cell-based"}},
  "note": "Where a SMILES comes first, the peptide text is derived from it. [ ]: non-standard residue; d: D form. Sar = CNCC(=O)O",
  "data": [
    {"smiles": "CN(CC(=O)O)C(=O)CN", "note": "(H-Gly-[Sar]-OH)", "values": [
      {"measurement": "Activity", "setting": "[1]", "value": "substrate [+]"},
      {"measurement": "Activity", "setting": "[2]", "value": "substrate [+]"}
    ]}
  ]
}
